# Patent US10945980B2, “Treatment for myopia” (The University of Newcastle, priority 2016, dated 2021)
# How the values were obtained:
# nNOS = nNOS immunohistochemistry of retinal whole mounts 3 hours after intravitreal injection; format: in vivo, guinea pig (Cavia porcellus)
# Protocol: Two experimental protocols were used. In Experiment 1, young guinea pigs were randomly divided into three drug treatment groups: no injection (n=14), vehicle (n=14) and 0.2 mM L-arginine (n=16). Animals in the latter two groups received a daily 10 μl intravitreal injection in one eye at 7, 8 and 9 days of age (Table 2). […] The fellow eye was untreated. At 10 days of age, the −6D lens was removed, animals were cyclopleged and refractive error was measured in both eyes. In Experiment 2, sixteen guinea pigs received an intravitreal injection of either vehicle (n=8) or 0.2 mM L-arginine (n=8) into their untreated eye at 16 days of age (Table 2). Injections were made 1 hour after the beginning of their 12 hr light cycle. 3 hours after injection, light adapted animals were euthanized, and the injected eye removed and processed using immunohistochemistry.
# To make the L-arginine (LA), 217.75 mg of LA (Sigma, A5006) was added to 10 ml of isotonic saline (Pfizer) to create 125 mM fresh stock each day. Hydrochloric acid was used to lower the stock to a pH of 7.4. The stock was diluted with isotonic saline to produce a final dose of 0.185 mM of LA (˜0.2 mM) at the level of the retina based on a vitreous volume of 125 μl and an injection volume of 10 μl. Vehicle injections consisted of 10 μl of isotonic saline (pH 7.4).
# Guinea pigs were briefly anaesthetised with isoflurane in oxygen and intravitreal injections were made through the pars plana ˜1 mm posterior to the limbus at an angle of approximately 40° to avoid contact with the crystalline lens and retina. Drugs were delivered using a 0.3 ml syringe (Diabetic BD UltraFine II) with a 31 gauge needle. After the injection, antibiotic gel (Conoptal) was applied lightly to the cornea, and animals recovered rapidly in a warm darkened box.
# In Experiment 2, three hours after their intravitreal injection, animals were anaesthetised with isoflurane in oxygen and then euthanized with an […] injection of sodium pentobarbitone (160 mg/kg; Lethabarb) into the heart. The eye that had received treatment was then enucleated. […]
# [1] = test system: form deprivation myopia in guinea pigs; test: Oral (gavage) L-arginine in form deprivation myopia; format: in vivo, guinea pig (Cavia porcellus)
# Description: Guinea pigs (pigmented variety, Cavia porcellus) were bred, housed, and raised as described in Example 1. The University of Newcastle Animal Care and ethics Committee approved all procedures.
# Two experimental protocols were employed (Table 3). In Experiment 1, 12 animals wore a diffuser over one eye (form-deprivation, FD) for […]. This period reliably induces myopia in the deprived eye compared to the untreated fellow eye. Seven of these animals also concurrently received a single gavage of L-arginine (200 mg/kg/day) each day at 9:30 am while briefly anaesthetised. […]
# At the end of the FD period, at 12 days of age (Experiment 1) or at […] (Experiment 2), after the morning gavage treatment, both eyes were cyclopleged and 1.25 hours later, refractive error was measured. […]
# After cycloplegia was induced, refractive error was measured in each eye using streak retinoscopy as previously described (Howlett and McFadden, 2007; McFadden et al., 2004). The spherical equivalent was calculated as the average of the horizontal and vertical meridians (see Howlett and McFadden, 2006). Next, ocular length was measured using high frequency ultrasound (20 MHz) as previously described (McFadden et al, 2004). At least 20 traces were recorded for each eye and distances were averaged for at least 10 of these recordings. […]
compound,measurement,setting,value
N=C(N)NCCC[C@H](N)C(=O)O [L-arginine],density of NOS displaced amacrine cells (DACs) vs vehicle injected eyes,"nNOS; single intravitreal 0.2 mM L-arginine, 3 hours after injection, each eccentricity from the optic nerve, p<0.001",significantly higher density
same,density of Type I amacrine cells expressing nNOS vs vehicle injected group,"nNOS; single intravitreal 0.2 mM L-arginine, 3 hours after injection, p<0.001",significantly higher density
same,increase of expression of nNOS in the retina,nNOS; single intravitreal injection of L-arginine (0.2 mM),approximately 20%
same,relative elongation (FD eye vs untreated eye),"[1]; Experiment 1: 200 mg/kg once daily gavage, 7 days FD, p=0.714",42±30 μm
same,eye lengths vs animals only fed water,"[1]; Experiment 2: 25 mg/kg twice daily gavage, 3 days FD, both the FD eye and the fellow eye",smaller eye lengths than animals only fed water
